This note sets out measurements from PubChem BioAssay AID687040 (Broad Institute, 2013).

Activity calls are given as the source filed them.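 How the source made its calls: active means fitted curve hits 40% activity increase at a dose no higher than the top valid tested dose; inconclusive means flat curve at 30 to 70% activity, or poor fit; inactive means the rest.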

The test system of one test is Huh7 psiCHECK-miR122 Renilla luciferase reporter, 48 h. The test can be described thus: miR-122 suppression via Renilla sensor signal rise – cell-based, Huh7-psiCHECK-miR122, luminescence, dry powder, dose response (AID 687040).
Details: not given
Turning to `Cc1ccc(NS(=O)(=O)c2cc(C(=O)NCc3ccccn3)ccc2Cl)cc1C`, the AC40 was 2270 nM. On to `O=C(CN1CCOCC1)Nc1ccc(Br)cc1C(=O)c1ccccc1`, for which the AC40 was 1430 nM.

For `CCCCNS(=O)(=O)c1ccc2nc(-c3cccnc3)cc(C(=O)NC(C)CC)c2c1` (centres undefined), the AC40 is 274 nM. Still for that read-out and setting: the same measure for `Cc1cc(Cl)c(Cl)cc1S(=O)(=O)NCCCn1ccnc1`: 1890 nM; for `COc1ccc(S(=O)(=O)Nc2ccc(OC(F)F)cc2)c2cccnc12`: 1430 nM. As to `COC(=O)c1cc(S(=O)(=O)Nc2cc(OC)cc(OC)c2)cn1C`, the AC40 is 3190 nM. With `O=C(Nc1ccc2ccccc2c1)c1ccc(Cl)cc1Cl`, the AC40 is > 35000 nM (inactive).

Turning to `COc1cc(C)c(C(C)C)cc1S(=O)(=O)n1cnc(C)c1`, the AC40 was 4600 nM. As for `Cc1ccc(S(=O)(=O)Nc2ccc3c4c(cccc24)CC3)c(C)c1`, the AC40 is 3660 nM.

`CCN(CC)C(=O)CN(c1cc2c(cc1OC)oc1ccccc12)S(=O)(=O)c1ccccc1`: the AC40 is 2290 nM.

With `CC1CCCCN1C(=O)c1cc2nc(-c3ccccc3)cc(-c3ccccc3)n2n1` (centres undefined), the AC40 was 925 nM. The same measure, in the same setting: the same measure for `Cc1ccc(C)c(S(=O)(=O)Nc2ccc3cn[nH]c3c2)c1`: 1540 nM; for `Cc1cc(C)c(S(=O)(=O)NC2CC3CCC2C3)c(C)c1` (centres undefined): 792 nM; for `Cc1cc(C(C)(C)C)cc(S(=O)(=O)NCCO)c1C`: 1260 nM. On the same count and under the same terms, the same measure for `CCOc1cc(C)c(S(=O)(=O)NC2CCCCC2)cc1C`: 1240 nM. Same read-out and setting: with `COc1ccc(S(=O)(=O)NCCN2CCOCC2)c2ccccc12` the figure was 1600 nM. On to `COc1ccc(C(C)(C)C)cc1S(=O)(=O)NCC1CCCO1` (centres undefined), for which the AC40 was 456 nM.

Turning to `CCOc1ccc(C)cc1S(=O)(=O)NC1CCCCC1`, the AC40 was 394 nM. Take `Cc1cc(S(=O)(=O)NC2CCCCC2)c(C)s1`: the AC40 is 2040 nM.

As to `O=S(=O)(c1ccc2c(c1)CCCN2)N1CCC[C@@H]2CCCC[C@H]21`, the AC40 is 6940 nM. As to `Cc1ccc(C)c(S(=O)(=O)Nc2ccc(-n3cnnn3)cc2)c1`, the AC40 was 271 nM.

With `CCOc1ccccc1N1CCN(C(=O)c2cccc(-c3ccc(O)cc3)c2)CC1`, the AC40 was under 260 nM. Turning to `COc1ccc(C)cc1NS(=O)(=O)c1ccc2c(c1)N(C)CCO2`, the AC40 is 2650 nM. Still for that read-out and setting: with `Nc1c(S(=O)(=O)c2cccs2)c2nc3ccccc3nc2n1Cc1ccccc1` the figure was 1250 nM; with `Cc1cccc(NS(=O)(=O)c2cc3c(cc2C)NC(=O)CO3)c1`, 2650 nM; with `CN1C(=O)c2cccc3c(S(=O)(=O)NCCc4ccccc4)ccc1c23`, 300 nM. Still for that read-out and setting: with `COc1cccc(N2CCN(C(=O)c3oc4ccccc4c3NC(=O)CCc3cc(OC)no3)CC2)c1` the figure was 2390 nM; with `O=C(Nc1ccc(N2CCOCC2)c(S(=O)(=O)Nc2cc(Cl)ccc2Cl)c1)c1cccnc1`, 761 nM; with `S=C(Nc1ccc(Cl)cc1Cl)NC1CCCCC1`, 4180 nM. As to `Cc1ccc(C(C)C)cc1S(=O)(=O)Nc1cccnc1`, the AC40 was 1790 nM. Consider `Cc1cc(C)c(C)c(S(=O)(=O)NC2CCCCC2)c1C`, for which the AC40 was 507 nM. Regarding `Cc1cc(C)c(S(=O)(=O)NC(C)C)c(C)c1-n1cnnn1`, the AC40 was 1720 nM. Turning to `Cc1ccc(C(=O)C2Oc3ccccc3C3CC(c4ccc(C)cc4)=NN23)cc1` (centres undefined), the AC40 was 831 nM.

Tested on in a further test: not listed separately
The test is described as above. The conditions noted are these: Huh7 psiCHECK-miR122 Renilla luciferase reporter, 48 h; at 35 µM (top of the series). On the technique in general: A reporter such as luciferase makes a cellular process visible.
For `O=S(=O)(Nc1cccc2[nH]ncc12)c1ccc(F)c2ncccc12`, the activity increase (miR-122 inhibition) was 6.99% (inactive).
